From patent US7273866B2, “2-aryl thiazole derivatives as KCNQ modulators” (Bristol-Myers Squibb Company, priority 2002, dated 2007)

Tested on: KCNQ channels
Test: Thallium flux assay for KCNQ channel openers
Assay type: cell-based
Conditions: HEK-293 cells stably transfected with a KCNQ family member; for Min. conc. response: minimal active concentration: lowest concentration giving signal amplitude >= four standard deviations of negative controls; for EC50: thallium flux, 10 point concentration series
Experimental: Thallium Flux Assay for KCNQ channel Openers. The thallium assay is a modification of that published by Weaver and is referenced in its entirety (Weaver, C. D. WO 02/31508, 2002).
Approximately 20,000 cells/well of an HEK-293 cell line stably transfected with one of the members of the KCNQ family were plated into clear-bottom, black-walled, poly-D-lysine coated, 384 well assay plates in 20 μl/well of low chloride plating medium. Low chloride plating medium was composed of the following: sodium gluconate, 109 mM; potassium gluconate, 5.4 mM; hemi-calcium gluconate, 3.6 mM; magnesium sulfate, 0.8 mM; sodium bicarbonate, 26.2 mM; sodium phosphate monobasic, 1.2 mM; glutamine, 2 mM; glucose, 5 mM; 4-(2-hydroxyethyl)-1-piperazineethanesulfonic acid (HEPES) (pH 7.3) 10 mM, MEM vitamin solution (10× concentration of vitamins, Gibco/LifeTechnologies 11120-052) and MEM amino acid solution (1× concentration of amino acids, Gibco/LifeTechnologies 11130-051).
Following overnight incubation in a 5% CO2 incubator at 37° C., the cells in the plates were loaded with 20 μl/well of a dye loading solution containing the commercially available thallium-sensitive fluorescent dye BTC-AM, the acetomethoxy ester of BTC (see U.S. Pat. No. 5,501,980) (2 μM) and pluronic acid F-127 (Molecular Probes P 6867) (0.02% w/v) in chloride free assay buffer. Chloride free assay buffer was composed of the following: sodium gluconate, 140 mM; potassium gluconate, 2.5 mM; hemi-calcium gluconate, 6 mM; hemi-magnesium gluconate, 2 mM; glucose, 5 mM; HEPES (pH 7.3), 10 mM.
Following incubation in the dye loading solution for from 45-90 min at room temperature, the dye loading solution was removed by aspiration and replaced with 40 μl/well of chloride free assay buffer.
Prior to addition to cell plates, test compound and standard compounds were dissolved in DMSO to 3 mM concentration. Compounds were then diluted from the 3 mM stock to 100-fold over the final assay concentration in DMSO. Finally, compounds in DMSO were diluted from 100-fold over the final assay concentration to 5-fold over the final assay concentration in chloride free assay buffer.
Ten μl/well of compounds at 5-fold over the final assay concentration were then added to the cell plates. This represents a 1:5 dilution, yielding the final test concentration. The wells used for test compounds were A1-P20. Wells A21-P22 contained a standard opener and a maximally efficacious concentration (positive control). Wells A23-P24 contained chloride free assay buffer containing 1% DMSO (negative control).
Following addition of test compounds, the plates were loaded onto the Molecular Devices FLIPR. The 488 nm line of the argon laser was used to excite the BTC and the emission filter was a 540(+/−30) nm. Images were collected at 1 Hz. Ten seconds of baseline were collected and then the FLIPR was used to add 13 μl/well of a stimulus buffer composed of 7.5 mM Tl2SO4 in chloride free assay buffer. Images were collected for an additional 60 seconds.
For data analysis, the amplitude of the average of the negative controls was subtracted from all wells. The amplitudes of the test compounds were then compared to the value of four standard deviations of the negative control wells. The lowest concentration of a test compound sufficient to generate a signal amplitude greater than or equal to four standard deviations from the amplitude of the negative controls was defined as the minimal active concentration.
For generating EC50 values, compounds were serially diluted in 1:3 volume increments to produce a 10 point concentration series. EC50 values were calculated by fitting the resulting amplitudes to a single-site logistic equation. EC50 was defined as the concentration of test compound required to yield 50% of the maximal response. Maximal response (Maximal opening) was the largest signal amplitude divided by the negative control amplitude generated by any concentration of a test compound. […]

EC50	SMILES	Min. conc. response
50 to 1000 nM	COc1cccc(-c2nc(C(F)(F)F)c(C(=O)N[C@@H](C)c3cccc(OC(F)(F)F)c3)s2)c1 (stereo in doubt) [Example 24, 2-(3-methoxyphenyl)-4-(trifluoromethyl)-N-[1-[3-(trifluoromethoxy)phenyl]ethyl]-5-thiazolecarboxamide]	3 µM
	COc1cccc([C@H](C)NC(=O)c2sc(-c3cccc(N4CCOCC4)c3)nc2C(F)(F)F)c1 (stereo in doubt) [Example 99]	3 µM
< 50 nM	CC(NC(=O)c1sc(-c2ccc(F)cc2)nc1C(F)(F)F)c1cccc(OC(F)(F)F)c1 (centres unmarked) [Example 17, 2-(4-fluorophenyl)-4-(trifluoromethyl)-N-[1-[3-(trifluoromethoxy)phenyl]ethyl]-5-thiazolecarboxamide]	0.3 µM
< 50 nM	COc1ccccc1-c1nc(C(F)(F)F)c(C(=O)NC(C)c2cccc(OC(F)(F)F)c2)s1 (centres unmarked) [Example 18, 2-(2-methoxyphenyl)-4-(trifluoromethyl)-N-[1-[3-(trifluoromethoxy)phenyl]ethyl]-5-thiazolecarboxamide]	0.3 µM
< 50 nM	COc1ccccc1-c1nc(C(F)(F)F)c(C(=O)NC(C)c2cccc(C(F)(F)F)c2)s1 (centres unmarked) [Example 19, 2-(2-methoxyphenyl)-4-(trifluoromethyl)-N-[1-[3-(trifluoromethyl)phenyl]ethyl]-5-thiazolecarboxamide]	3 µM
1000 to 20000 nM	CC(NC(=O)c1sc(-c2ccc3c(c2)OCO3)nc1C(F)(F)F)c1cccc(OC(F)(F)F)c1 (centres unmarked) [Example 20, 2-(3,4-dioxolanylphenyl)-4-(trifluoromethyl)-N-[1-[3-(trifluoromethoxy)phenyl]ethyl]-5-thiazolecarboxamide]	0.3 µM
< 50 nM	CC(NC(=O)c1sc(-c2ccccc2F)nc1C(F)(F)F)c1cccc(C(F)(F)F)c1 (centres unmarked) [Example 22, 2-(2-fluorophenyl)-4-(trifluoromethyl)-N-[1-[3-(trifluoromethyl)phenyl]ethyl]-5-thiazolecarboxamide]	0.3 µM
50 to 1000 nM	COc1ccccc1-c1nc(C(F)(F)F)c(C(=O)N[C@@H](C)c2cccc(N3CCOCC3)c2)s1 [Example 23, 2-(2-methoxyphenyl)-4-(trifluoromethyl)-N-[1-[3-(1-morpholinyl)phenyl]ethyl]-5-thiazolecarboxamide]	3 µM
1000 to 20000 nM	COc1ccccc1-c1nc(C(F)(F)F)c(C(=O)NC(C)c2cccc(N(C)C)c2)s1 (centres unmarked) [Example 25, 2-(2-methoxyphenyl)-4-(trifluoromethyl)-N-[1-[3-(dimethylamino)phenyl]ethyl]-5-thiazolecarboxamide]	3 µM
50 to 1000 nM	CC(NC(=O)c1sc(-c2ccccc2F)nc1C(F)(F)F)c1cccc(N(C)C)c1 (centres unmarked) [Example 26, 2-(2-fluorophenyl)-4-(trifluoromethyl)-N-[1-[3-(dimethylamino)phenyl]ethyl]-5-thiazolecarboxamide]	3 µM
1000 to 20000 nM	COc1ccccc1-c1nc(C(F)(F)F)c(C(=O)NCc2cccc(F)c2)s1 [Example 27, 2-(2-methoxyphenyl)-4-(trifluoromethyl)-N-(3-fluorophenyl)methyl-5-thiazolecarboxamide]	3 µM
1000 to 20000 nM	COc1ccc(-c2nc(C(F)(F)F)c(C(=O)NC(C)c3cccc(OC(F)(F)F)c3)s2)cc1 (centres unmarked) [Example 28, 2-(4-methoxyphenyl)-4-(trifluoromethyl)-N-[1-[3-(trifluoromethoxy)phenyl]ethyl]-5-thiazolecarboxamide]	10 µM
50 to 1000 nM	COc1ccc(-c2nc(C(F)(F)F)c(C(=O)NC(C)c3cccc(OC(F)(F)F)c3)s2)cc1OC (centres unmarked) [Example 29, 2-(3,4-dimethoxyphenyl)-4-(trifluoromethyl)-N-[1-[3-(trifluoromethoxy)phenyl]ethyl]-5-thiazolecarboxamide]	3 µM
50 to 1000 nM	COc1ccc(-c2nc(C(F)(F)F)c(C(=O)NC(C)c3cccc(OC(F)(F)F)c3)s2)c(OC)c1 (centres unmarked) [Example 30, 2-(2,4-dimethoxyphenyl)-4-(trifluoromethyl)-N-[1-[3-(trifluoromethoxy)phenyl]ethyl]-5-thiazolecarboxamide]	3 µM
1000 to 20000 nM	COc1ccc(-c2nc(C(F)(F)F)c(C(=O)N[C@@H](C)c3cccc(N4CCOCC4)c3)s2)c(OC)c1 [Example 31, 2-(2,4-dimethoxyphenyl)-4-(trifluoromethyl)-N-[1-[3-(4-morpholinyl)phenyl]ethyl]-5-thiazolecarboxamide]	3 µM
< 50 nM	COc1ccccc1-c1nc(C(F)(F)F)c(C(=O)NC(C)c2cccc(N3CCCCC3)c2)s1 (centres unmarked) [Example 32, 2-(2-methoxyphenyl)-4-(trifluoromethyl)-N-[1-[3-(1-piperidinyl)phenyl]ethyl]-5-thiazolecarboxamide]	0.3 µM
50 to 1000 nM	COc1ccccc1-c1nc(C(F)(F)F)c(C(=O)NC(C)c2cccc(N3CCCC3)c2)s1 (centres unmarked) [Example 33, 2-(2-methoxyphenyl)-4-(trifluoromethyl)-N-[1-[3-(1-pyrrolidinyl)phenyl]ethyl]-5-thiazolecarboxamide]	3 µM
< 50 nM	COc1ccccc1-c1nc(C(F)(F)F)c(C(=O)NC(C)c2cccc(N(C)Cc3ccco3)c2)s1 (centres unmarked) [Example 34, 2-(2-methoxyphenyl)-4-(trifluoromethyl)-N-[1-[3-[(2-furanylmethyl)methylamino]phenyl]ethyl]-5-thiazolecarboxamide]	0.3 µM
50 to 1000 nM	CC(NC(=O)c1sc(-c2ccccc2F)nc1C(F)(F)F)c1cccc(N(C)Cc2ccco2)c1 (centres unmarked) [Example 35, 2-(2-fluorophenyl)-4-(trifluoromethyl)-N-[1-[3-[(2-furanylmethyl)methylamino]phenyl]ethyl]-5-thiazolecarboxamide]	0.3 µM
1000 to 20000 nM	COc1ccc(-c2nc(C(F)(F)F)c(C(=O)NC(C)c3cccc(CN4CCCC4)c3)s2)cc1OC (centres unmarked) [Example 36, 2-(3,4-dimethoxyphenyl)-4-(trifluoromethyl)-N-[1-[3-[(1-pyrrolidinyl)methyl]phenyl]ethyl]-5-thiazolecarboxamide]	10 µM
1000 to 20000 nM	CC(NC(=O)c1sc(-c2ccccc2F)nc1C(F)(F)F)c1cccc(CN2CCOCC2)c1 (centres unmarked) [Example 37, 2-(2-fluorophenyl)-4-(trifluoromethyl)-N-[1-[3-[(4-morpholinyl)methyl]phenyl]ethyl]-5-thiazolecarboxamide]	3 µM
1000 to 20000 nM	CCN(CC)Cc1cccc(C(C)NC(=O)c2sc(-c3cccc4ccccc34)nc2C(F)(F)F)c1 (centres unmarked) [Example 38, 2-(1-naphthyl)-4-(trifluoromethyl)-N-[1-[3-[(diethylamino)methyl]phenyl]ethyl]-5-thiazolecarboxamide]	30 µM
1000 to 20000 nM	COc1ccccc1-c1nc(C(F)(F)F)c(C(=O)NC(C)c2cccc(N)c2)s1 (centres unmarked) [Example 39, 2-(2-methoxyphenyl)-4-(trifluoromethyl)-N-[1-(3-aminophenyl)ethyl]-5-thiazolecarboxamide]	10 µM
1000 to 20000 nM	COc1ccccc1-c1nc(C(F)(F)F)c(C(=O)NC(C)c2cccc(NC(=N)N)c2)s1 (centres unmarked) [Example 40, 2-(2-methoxyphenyl)-4-(trifluoromethyl)-N-[1-[3-(guanidinyl)phenyl]ethyl]-5-thiazolecarboxamide]	30 µM
